Molecular target: T1, HA-F688A CaSR mutant (Rattus norvegicus, UniProt P48442, F688A)
T1 construct: mGluR5 signal peptide (N); expressed in transfected cells; host or cells: HEK293T
T1 sequence (P48442 20-1079 F688A): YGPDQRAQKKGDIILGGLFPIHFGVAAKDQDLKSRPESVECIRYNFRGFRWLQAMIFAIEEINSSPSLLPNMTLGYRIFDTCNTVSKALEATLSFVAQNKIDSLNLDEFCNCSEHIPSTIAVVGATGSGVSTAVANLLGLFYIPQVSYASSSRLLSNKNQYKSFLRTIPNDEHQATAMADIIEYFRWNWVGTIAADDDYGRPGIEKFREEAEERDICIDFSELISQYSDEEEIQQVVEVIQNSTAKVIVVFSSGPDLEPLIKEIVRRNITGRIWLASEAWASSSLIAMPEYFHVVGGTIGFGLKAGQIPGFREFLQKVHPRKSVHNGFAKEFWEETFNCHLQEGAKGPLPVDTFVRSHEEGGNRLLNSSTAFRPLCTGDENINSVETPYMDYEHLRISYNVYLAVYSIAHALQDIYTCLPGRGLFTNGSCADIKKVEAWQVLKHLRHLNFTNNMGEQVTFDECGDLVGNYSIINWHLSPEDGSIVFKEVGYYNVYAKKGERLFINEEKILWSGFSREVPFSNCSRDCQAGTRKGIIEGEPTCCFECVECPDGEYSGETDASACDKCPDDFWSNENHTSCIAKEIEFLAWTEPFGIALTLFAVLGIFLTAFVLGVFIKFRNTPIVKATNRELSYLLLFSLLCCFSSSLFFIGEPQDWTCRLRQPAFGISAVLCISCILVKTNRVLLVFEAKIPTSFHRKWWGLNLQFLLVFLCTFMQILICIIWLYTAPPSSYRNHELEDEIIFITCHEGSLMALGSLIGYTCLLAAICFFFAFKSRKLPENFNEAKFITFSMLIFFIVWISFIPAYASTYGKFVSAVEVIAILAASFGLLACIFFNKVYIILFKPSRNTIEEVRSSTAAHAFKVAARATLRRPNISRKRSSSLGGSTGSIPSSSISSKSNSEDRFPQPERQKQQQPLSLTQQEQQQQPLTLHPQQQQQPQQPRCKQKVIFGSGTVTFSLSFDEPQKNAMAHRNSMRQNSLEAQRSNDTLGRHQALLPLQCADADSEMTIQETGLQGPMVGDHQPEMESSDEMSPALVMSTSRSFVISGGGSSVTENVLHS
Assay: IP-One assay, HEK293T transiently transfected
Type: cell-based

EC50 (Ca^2+ alone): 6.11 mM
pEC50 ± S.E.M. (Ca^2+ alone): 2.21 ± 0.01
Max ± S.E.M. (Ca^2+ alone, normalized to maximum response of WT CaSR): 86 ± 3.1%
EC50 (Ca^2+ with 1 μM NPS R-568): 2.86 mM
pEC50 ± S.E.M. (Ca^2+ with 1 μM NPS R-568): 2.54 ± 0.02
Max ± S.E.M. (Ca^2+ with 1 μM NPS R-568, normalized to maximum response with Ca^2+ alone for the construct): 110 ± 9%
EC50 (Ca^2+ with 5 μM NPS 2143): 8.31 mM
pEC50 ± S.E.M. (Ca^2+ with 5 μM NPS 2143): 2.08 ± 0.01
Max ± S.E.M. (Ca^2+ with 5 μM NPS 2143, normalized to maximum response with Ca^2+ alone for the construct): 79 ± 6.9%
SMILES: [Ca+2] [Ca^2+]
